Assay results reported in patent US4380512A, “2β-Chloromethyl-2α-methylpenam-3α-carboxylic acid sulfone and salts and esters thereof” (Bristol-Myers Company, priority 1981, dated 1983).
≈ marks a conversion by molar mass, not a printed value. Read-outs that look alike come from different tables or passages of the source.

How the values were obtained:
B. thetaiotaomicron = assay: Anti-Bacteroides activity, MIC by agar dilution (Table 2); type: cell-based; conditions: A22279, beta-lactamase +
Method: *Minimum inhibitory concentration (MIC) determined by the agar dilution
method using 50X dilutions of 24 hour cultures as inocula dispensed by th
Steer's inoculator. Assay medium composed of Brucella Agar plus 5% laked
sheep blood and 10 mcg/ml vitamin K.

Bacteroides species = assay: as above; type: cell-based
[1] = Blood levels after oral administration to mice (Table 4); type: in vivo; conditions: 100 mg/kg oral, 15 min, assay S. aureus A-9606
in vivo [2] = conditions: mouse, po
From the text: Compounds were solubilized in propylene glycol, except for the Hetacillin

C. freundii = assay: Antibacterial activity of ceforanide alone and with BL-P2013, MIC (Table 11); type: cell-based; conditions: Citrobacter freundii
From the text: (§1) ^a Geometric mean value where applicable.

Citrobacter sp. = assay: as above; type: cell-based
From the text: as §1

E. aerogenes = assay: as above; type: cell-based
From the text: as §1

M. morganii = assay: as above; type: cell-based; conditions: geometric mean
From the text: as §1

P. aeruginosa = assay: as above; type: cell-based; conditions: Pseudomonas aeruginosa
From the text: as §1

P. stuartii = assay: as above; type: cell-based; conditions: Providencia stuartii
From the text: as §1

S. marcescens = assay: as above; type: cell-based
From the text: as §1

E. coli A9675 = assay: Therapeutic efficacy of BL-P2043, BL-P2044 and components, oral, infected mice (Table 13); type: in vivo; conditions: Escherichia coli, A9675, po, read-out: PD50/Treatment
[3] = system: β-lactamase-producing bacteria; assay: Protection of ceforanide and amoxicillin from destruction; conditions: in vitro and in vivo, in combination
[4] = mouse, in vivo, po
in vivo [5] = conditions: mouse, po; remark: listed apart in the source
E. cloacae = assay: Antibacterial activity of ceforanide alone and with BL-P2013, MIC (Table 11); type: cell-based; conditions: Enterobacter cloacae
From the text: as §1

P. mirabilis = assay: as above; type: cell-based; conditions: Proteus mirabilis
From the text: as §1

P. rettgeri = assay: as above; type: cell-based; conditions: Providencia rettgeri
From the text: as §1

P. vulgaris = assay: as above; type: cell-based; conditions: Proteus vulgaris
From the text: as §1

S. faecalis = assay: as above; type: cell-based; conditions: Enterococcus faecalis
From the text: as §1

β-lactamase enzyme RTEM = conditions: cited from earlier work
Storage stability = type: physicochemical; conditions: 23° C., seven days
Hygroscopicity = type: physicochemical; conditions: solid
[6] = system: β-lactamase-producing strains; conditions: in vitro and in vivo; cited from earlier work
[7] = Klebsiella aerogenes, 4 strains, geometric mean, read-out: MIC

Q: For `CC1(CCl)C(C(=O)O)N2C(=O)CC2S1(=O)=O` (stereo not drawn) [BL-P2013, Potassium 2β-Chloromethyl-2α-methylpenam-3α-carboxylate Sulfone], which MIC (B. thetaiotaomicron) is on record?
A: Its MIC is 63 µg/mL.

Q: What about the MIC (Bacteroides species; A20927-1, beta-lactamase -) of the same compound?
A: Its MIC is 63 µg/mL.

Q: What about the MIC (Bacteroides species; A20933, beta-lactamase +) of the same compound?
A: The MIC was 63 µg/mL.

Q: And the “Blood Level” value [1]?
A: The value was 4600 ng/mL.

Q: And the AUC (in vivo [2]; 38 mg/kg)?
A: The AUC was 4400 ng·h/mL.

Q: What about the concentration at 0.5 h (in vivo [2]; 38 mg/kg) of the same compound?
A: Its concentration at 0.5 h is 2300 ng/mL.

Q: What about the concentration at 2 h (in vivo [2]; 38 mg/kg) of the same compound?
A: The concentration at 2 h was 1600 ng/mL.

Q: What about the MIC (C. freundii; 1 strain, read-out: MIC) of the same compound?
A: Its MIC is over 125 µg/mL.

Q: What about the MIC (Citrobacter sp.; 1 strain, read-out: MIC) of the same compound?
A: Its MIC is 16 µg/mL.

Q: What about the MIC (E. aerogenes; Klebsiella aerogenes, 1 strain, read-out: MIC) of the same compound?
A: Its MIC is 16 µg/mL.

Q: What about the MIC (E. aerogenes; [7]) of the same compound?
A: The MIC was over 125 µg/mL.

Q: What about the MIC (E. aerogenes; Klebsiella aerogenes, 5 strains, geometric mean, read-out: MIC) of the same compound?
A: Its MIC is over 125 µg/mL.

Q: What about the MIC (M. morganii; 8 strains (second line)) of the same compound?
A: Its MIC is over 125 µg/mL.

Q: And the MIC (P. aeruginosa; 16 strains, geometric mean, read-out: MIC)?
A: The MIC was 125 µg/mL.

Q: And the MIC (P. stuartii; 1 strain)?
A: Its MIC is 125 µg/mL.

Q: What about the MIC (P. stuartii; 4 strains, geometric mean) of the same compound?
A: Its MIC is 125 µg/mL.

Q: What about the MIC (S. marcescens; 6 strains, geometric mean) of the same compound?
A: Its MIC is 125 µg/mL.

Q: What about the MIC (S. marcescens; Serratia marcescens, 10 strains, geometric mean, read-out: MIC) of the same compound?
A: Its MIC is 125 µg/mL.

Q: What about the ED50 (E. coli A9675) of the same compound?
A: Its ED50 is over 50 mg/kg.

Q: What about the “protection of ceforanide and amoxicillin from destruction by β-lactamase-producing bacteria” value [3] of the same compound?
A: Its value is “protected ceforanide and amoxicillin from destruction by β-lactamase-producing bacteria in vitro and in vivo”.

Q: What about the “Blood Level” value ([4]; 38 mg/kg, 0.5 h) of the same compound?
A: Its value is 1800 ng/mL.

Q: And the “Blood Level” value ([4]; 38 mg/kg, 1 h)?
A: Its value is 1400 ng/mL.

Q: And the AUC (in vivo [5]; 38 mg/kg)?
A: Its AUC is 4400 ng·h/mL.

Q: What about the concentration at 0.5 h (in vivo [5]; 38 mg/kg, Blood Level) of the same compound?
A: Its concentration at 0.5 h is 2300 ng/mL.

Q: What does the source list for `CC1(C)S[C@@H]2[C@H](NC(=O)[C@H](N)c3ccc(O)cc3)C(=O)N2[C@H]1C(=O)O` [Amoxicillin, reference compound]?
A: MIC (B. thetaiotaomicron): 16 µg/mL; MIC (Bacteroides species; A20929, beta-lactamase +): 16 µg/mL; MIC (Bacteroides species; A20931, beta-lactamase +): 16 µg/mL; MIC (Bacteroides species; A21954, beta-lactamase +): 16 µg/mL; AUC (in vivo [2]; 50 mg/kg): 9500 ng·h/mL; concentration at 0.5 h (in vivo [2]; 50 mg/kg): 7000 ng/mL; concentration at 1 h (in vivo [2]; 50 mg/kg): 5000 ng/mL; concentration at 2 h (in vivo [2]; 50 mg/kg): 2200 ng/mL; Blood Level ([4]; 50 mg/kg, 0.5 h): 7000 ng/mL; Blood Level ([4]; 50 mg/kg, 1 h): 5000 ng/mL; Blood Level ([4]; 50 mg/kg, 2 h): 2200 ng/mL; AUC (in vivo [5]; 50 mg/kg): 15400 ng·h/mL; concentration at 0.5 h (in vivo [5]; 50 mg/kg, Blood Level): 11000 ng/mL; concentration at 1 h (in vivo [5]; 50 mg/kg, Blood Level): 9000 ng/mL; concentration at 2 h (in vivo [5]; 50 mg/kg, Blood Level): 3100 ng/mL

Q: Which results are given for `NCc1ccccc1CC(=O)N[C@@H]1C(=O)N2C(C(=O)O)=C(CSc3nnnn3CC(=O)O)CS[C@H]12` [Ceforanide]?
A: MIC (C. freundii): > 125 µg/mL; MIC (Citrobacter sp.): > 125 µg/mL; MIC (E. aerogenes; 5 strains, geometric mean): > 125 µg/mL; MIC (E. aerogenes; Klebsiella aerogenes): > 125 µg/mL; MIC (E. aerogenes; [7]): 3.4 µg/mL (≈ 6.54 µM); MIC (E. cloacae; 1 strain (first line)): 22.6 µg/mL (≈ 43.5 µM); MIC (E. cloacae; 1 strain (third line)): > 125 µg/mL; MIC (E. cloacae; 14 strains, geometric mean): > 125 µg/mL; MIC (M. morganii; Morganella morganii, 8 strains (second line)): > 125 µg/mL; MIC (M. morganii; Morganella morganii, 8 strains (first line), read-out: MIC): 65 µg/mL (≈ 125 µM); MIC (P. aeruginosa): 125 µg/mL (≈ 241 µM); MIC (P. mirabilis; 1 strain): 0.25 µg/mL (≈ 0.481 µM); MIC (P. mirabilis; 3 strains, geometric mean): 25.4 µg/mL (≈ 48.9 µM); MIC (P. rettgeri; 1 strain (first line)): 0.06 µg/mL (≈ 0.115 µM); MIC (P. rettgeri; 1 strain (second line)): 16 µg/mL (≈ 30.8 µM); MIC (P. stuartii; 1 strain): 0.35 µg/mL (≈ 0.674 µM); MIC (P. stuartii; 4 strains, geometric mean): 45 µg/mL (≈ 86.6 µM); MIC (P. vulgaris): > 125 µg/mL; MIC (P. vulgaris; 1 strain, read-out: MIC): 0.5 µg/mL (≈ 0.962 µM); MIC (P. vulgaris; 9 strains, geometric mean, read-out: MIC): 85 µg/mL (≈ 164 µM); MIC (S. faecalis): > 125 µg/mL; MIC (S. marcescens; 6 strains, geometric mean): 125 µg/mL (≈ 241 µM); MIC (S. marcescens; Serratia marcescens): 125 µg/mL (≈ 241 µM)

Q: With `CC1(C)[C@H](C(=O)O)N2C(=O)[C@@H](Br)[C@H]2S1(=O)=O` [(2S,5R,6S)-6β-Bromo-3,3-dimethyl-7-oxo-4-thia-1-azabicyclo[3.2.0]heptane-2-carboxylic acid, S,S-dioxide] as the compound, how does the “inhibition of β-lactamase” value (β-lactamase enzyme RTEM) read?
A: Its value is “inhibit the action of the β-lactamase enzyme RTEM”.

Q: Which results are given for `CC1(CCl)C(C(=O)O)N2C(=O)CC2S1(=O)=O` (stereo not drawn) [BL-P2013 Free Acid, 2β-chloromethyl-2α-methylpenam-3α-carboxylic acid sulfone]?
A: stability on storage (Storage stability): unstable when stored at 23 °C for seven days; hygroscopicity (Hygroscopicity): hydroscopic

Q: Which potentiation of ampicillin [6] does the source give for `CC1(C)[C@H](C(=O)O)N2C(=O)C[C@H]2S1(=O)=O` [CP-45899] here?
A: Its potentiation of ampicillin is “potentiates the in vitro and in vivo activities of ampicillin versus β-lactamase-producing strains”.
